This passage reports cytotoxicity results from ChEMBL document CHEMBL3507680, “University of Dundee, Gates Library screen for HepG2 cell viability”.

The nature of this data set: Human HepG2 cell viability assay in 384 well format. It is filed as toxicity, cell-based. On the set-up: dose 125 nL, time 70.5 hour; cytotoxicity at 70.5 h: concentration not given beside the values. The conditions noted are these: HepG2 cells, read-out: Inhibition.

As to `CC(C)OCCN1CCC(Nc2ccc(C#N)cc2F)CC1`, the cytotoxicity at 70.5 h was -8.23%.
The figure for `CCC1CN(C)c2ccccc2CN1C(=O)Nc1cccc(F)c1` (stereo not drawn) is -9.77%; for `COc1ccccc1NC(=O)NC1(c2noc(CN(C)C)n2)CCCC1` it is 22.4%; for `COc1cc(CN(C)Cc2cccnc2)c(SC)cc1OC` it is -8.67%.
The figure for `CC(O)CN1CCN(CCOCC(F)(F)F)CC1` (stereo not drawn) is -7.92%.
Next, `CC(C)(C)C(O)CN1CCN(CCOCC(F)(F)F)CC1` (stereo not drawn): -9.97%; `CC(C)c1nc(CNC2CCN(C(=O)OC(C)(C)C)CC2)cs1`: -8.72%.
As to `COc1ccc(CNc2cccnc2-n2cccn2)c(OC)c1OC`, the cytotoxicity at 70.5 h is -11.5%.
As to `Cc1nc(C2CN(Cc3ccccc3C)CCO2)no1` (stereo not drawn), the cytotoxicity at 70.5 h was -11%.
Next, `CCCNC(=O)CN1CCC(NCc2csc(C(C)C)n2)CC1`: -11.5%.
Regarding `CCS(=O)(=O)CCN(C)Cc1cc(C)ccc1OC`, the cytotoxicity at 70.5 h was -13.6%.
The figure for `CS(=O)(=O)Cc1ccc(C(=O)NCc2ccc(Cl)cc2Cl)cc1` is -6.11%; for `COCCNC(=O)c1ccc2c(=O)n3c(nc2c1)CCCCCC3` it is 7.92%.
Next, `O=S(=O)(NCc1ccc(S(=O)(=O)N2CCCC2)s1)c1cc(Cl)ccc1Cl`: -14.9%; `O=S(=O)(NCc1ccc(S(=O)(=O)N2CCCC2)s1)c1ccc(F)cc1Cl`: -1.37%; `CC(=O)N1CCC(NC(=O)NCc2ncc(-c3ccccc3)o2)CC1`: -3.53%.
Next, `Cc1cccc2c1NC1(CCCC1)NC2=O`: -13.5%; `CCn1c(CN(C)Cc2cnc(C)s2)nc2c(F)cccc21`: -24.5%; `c1ccc(C(NCc2nnc(-c3ccco3)o2)C2CCC2)cc1` (stereo not drawn): -14.7%.
`CCNC(=O)CCC(=O)NC1(c2cccc(C(F)(F)F)c2)CCC1`: the cytotoxicity at 70.5 h amounted to 16.4%.
Next, `COCC(O)CNc1ccc(C#N)cc1C(F)(F)F` (stereo not drawn): -9.81%; `Cc1nc(C)c(CCNc2ccc(S(N)(=O)=O)cc2C#N)s1`: -15%.
In the case of `CCC(C(=O)Nc1ccc2cn(CC)nc2c1)N1CCCC1=O` (stereo not drawn), the cytotoxicity at 70.5 h was -24.8%.
The figure for `Cc1ccnc(NC(=O)C2CCN(CCCn3ccnc3)CC2)c1` is -15.3%; for `COc1cccc(CN(C)Cc2nc(C(C)C)no2)c1` it is 14.7%.
Next, `CO[C@H]1CN(C(=O)OC(C)(C)C)CC1NCc1cccn1C` (stereo partly drawn): -8.94%; `CO[C@H]1CN(C(=O)OC(C)(C)C)CC1NCc1cc[nH]c1` (stereo partly drawn): -20.4%.
Next, `CCN1CCc2c(cccc2NC(=O)CN(C)C2CCSC2)C1` (stereo not drawn): -3.51%; `Cn1cc(CCNCC2CNc3ccnn3C2)cn1` (stereo not drawn): 1.67%.
Turning to `COCCS(=O)(=O)NC(C)c1ccc(-n2nc(C)cc2C)cc1` (stereo not drawn), the cytotoxicity at 70.5 h turned out to be 3.86%.
The figure for `N#Cc1c(F)cccc1N1CCN(S(=O)(=O)c2cccs2)CC1` is 8.47%.
Next, `COc1ccc(C2CCCN2C(=O)NCCNc2ncccn2)cc1` (stereo not drawn): -4.74%; `CCCOc1cc(C)ccc1NC(=O)NCCC(=O)N(C)C`: -2.29%.
Next, `O=C(NCC1CC1)C1CSCN1S(=O)(=O)c1cccc(F)c1` (stereo not drawn): -0.541%.
For the compound `CC(O)CN1CCC(CNCc2ccc(S(C)(=O)=O)cc2)CC1` (stereo not drawn), the cytotoxicity at 70.5 h was -3.17%.
Next, `CC(C1CC1)N(C)C(=O)c1cnc(-c2ccc3c(c2)OCO3)s1` (stereo not drawn): 13.8%.
Next, `Cc1cccc(N2CCC(NC(=O)CCCc3cccs3)CC2)n1`: -2.62%.
The figure for `CSCC(CCO)NC(=O)Nc1cc(C)ccc1C` (stereo not drawn) is 0.113%; for `OCC1CCCN1c1cc(NCCNc2ccccn2)ncn1` (stereo not drawn) it is 0.758%; for `Cc1cn(-c2ccccc2)nc1NS(=O)(=O)c1cc(C(=O)O)cs1` it is 14.9%.
In the case of `Cc1ccc(C(=O)O)cc1S(=O)(=O)Nc1nn(-c2ccccc2)cc1C`, the cytotoxicity at 70.5 h was -0.199%.
The figure for `CC1CN(C)c2ccccc2CN1C(=O)c1ccc[nH]1` (stereo not drawn) is 0.885%.
The figure for `OCC1CCCN1c1cc(NCCc2c[nH]c3ccccc23)ncn1` (stereo not drawn) is 1.16%; for `CC(C)c1nc(CN(C)C2CCN(CC(F)(F)F)C2)no1` (stereo not drawn) it is 1.98%.
Next, `CS(=O)(=O)c1ccc(CNCC2CCN(CCO)CC2)cc1`: 18.2%; `CC1CN(C)c2ccccc2CN1C(=O)c1ccncc1` (stereo not drawn): 0.805%; `COc1ccc(C2CCCN2C(=O)CCNc2ncccn2)cc1` (stereo not drawn): -5.82%.
For `Cn1nnc2cc(C(=O)N3CCCC3Cc3ccccc3)ccc21` (stereo not drawn), the cytotoxicity at 70.5 h is -1.35%.
Next, `Cc1cccc(CCC(=O)N2CCOCC2c2c(C)n[nH]c2C)c1` (stereo not drawn): 17.3%; `CCN1CC(C(=O)NCc2ccnc(-n3ccnc3C)c2)CC1=O` (stereo not drawn): -1.78%; `CCn1ccnc1CN1CCN(Cc2ccccn2)CC1C` (stereo not drawn): 9.97%.
Next, `CNc1cc(N2CCCC2CNCc2ccccn2)ncn1` (stereo not drawn): 14.8%; `NC(=O)c1cc(NC(=O)N2CCCCCC2)ccc1F`: 35.1%.
Next, `CCN(CC)C(CNS(=O)(=O)c1ccc(C(=O)NC)cc1)c1ccco1` (stereo not drawn): -8.07%; `Cc1cc(C)n(CC2CN(Cc3cccc(C(N)=O)c3)CCO2)n1` (stereo not drawn): 6.91%.
`O=C(NCCCOCC1CC1)Nc1cccnc1N1CCOCC1`: the cytotoxicity at 70.5 h is -5.01%.
The figure for `Cc1nn(CC(=O)N2CCCCC2Cn2cccn2)c(C)c1Cl` (stereo not drawn) is -0.411%.
With `CC(Oc1ccccc1C(F)(F)F)C(=O)NCC(N)=O` (stereo not drawn), the cytotoxicity at 70.5 h was -1.2%.
The figure for `Cc1cccc(N2CCN(CCCNC(=O)c3nccn3C)CC2)c1` is -3.1%; for `Cc1nc(C)n(CC2CN(Cc3cccc(C(N)=O)c3)CCO2)n1` (stereo not drawn) it is -4.7%; for `COc1c(C2CCCN2C(=O)c2cc(Cl)c[nH]2)c(C)nn1C` (stereo not drawn) it is -0.121%.
In the case of `NC(=O)c1ccc(NC(=O)CCN2CCCC(N3CCCC3)C2)cc1` (stereo not drawn), the cytotoxicity at 70.5 h was determined as 12.4%.
Next, `Cc1cc(NC(=O)N2CCN(c3nc(C)c(C)s3)CC2)no1`: 21.7%.
Next, `CC(=O)N1CCCC1c1nnc2n1CCCCC2` (stereo not drawn): 2.96%; `Cn1ccnc1CNC(=O)N1CCCC(Cc2nccn2C)C1` (stereo not drawn): 2.69%.
As for `Cc1nn(C)c(C)c1CCC(=O)N1CCCC1Cn1cccn1` (stereo not drawn), the cytotoxicity at 70.5 h was -2.38%.
Next, `Cc1cc(C)n(C2CCCN(C(=O)c3ccc(F)cc3F)C2)n1` (stereo not drawn): -0.896%; `Cc1nc(C)n(C2CCCN(C(=O)Cc3cccnc3)C2)n1` (stereo not drawn): 3.66%; `Cc1nn(C)c(C)c1C1CCCN1C(=O)c1ccc(Cl)o1` (stereo not drawn): 3.22%.
Next, `O=C(Nc1ccccc1)N1C[C@H]2C[C@H](C(=O)N3CCCC3)[C@@H](C1)O2`: 15.5%.
As to `CC1CC2(CCN(C(=O)c3c[nH]cn3)CC2)c2ccccc21` (stereo not drawn), the cytotoxicity at 70.5 h was -8.21%.
In the case of `O=C(NCc1cncc2c1CCN(CC1CCOC1)C2)c1ccco1` (stereo not drawn), the cytotoxicity at 70.5 h worked out at 19.6%.
Next, `Cc1ccc(CN2CCc3c(COCC4CC4)nn(C)c3C2)s1`: 21.5%.
